# Tested on: MDA-MB-231 multicell spheroids, viability (%T/C)
# Assay: Anticancer human tumor MDA-MB-231 cell line growth inhibition [IpAb];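 note: viability read after seven days of drug exposure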;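 for viability, T/C: 100% = DMSO vehicle control viability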
# Details: for IC50: curve of first compound; for viability, T/C: stronger effect = lower value
# Excerpt: Combinatorial screen of targeted agents with ipatasertib and abemaciclib in multi-cell type tumor spheroids
# A high-throughput screen of multi-cell type tumor spheroids was designed to identify active combinations of targeted small molecules and ipatasertib or abemaciclib. Complex spheroids include a stromal component modeled by human endothelial cells (HUVEC) and fibroblasts modeled by human mesenchymal stem cells (MSCs). The concentration ranges selected for each drug and investigational agent were based upon clinically achievable concentrations if the clinical Cmax of the agent was known.
# Compounds. The drugs and investigational agents: ipatasertib (NSC767898), abemaciclib(NSC768073), selumetinib (NSC741078), trametinib (758246), adavosertib (NSC754352), everolimus (NSC733504), sapanisertib (NSC764658), vemurafenib (NSC761431), venetoclax (NSC766270), copanlisib (NSC809693), apelisib (NSC765974), palbociblib (NSC758247), vemurafenib (NSC761431), dabrafenib (NSC764134), ravoxertinib (NSC781343), BMS-387032 (NSC767048), sotorasib (NSC818433), talazoparib (NSC767125) and afursertib (NSC778305), were obtained from the National Cancer Institute (NCI) Developmental Therapeutics Program Chemical Repository. The FDA-approved anticancer drug set is available from the NCI Developmental Therapeutics Program. […] The stock solutions were prepared in dimethyl sulfoxide (DMSO, Sigma-Aldrich, St. Louis, MO, cat. D2650) at 800-fold the tested concentration and stored at -70 degrees C prior to their use. All drugs and investigational agents were tested over a range starting from a high concentration at or near the clinical Cmax and decreasing in half-log increments. If the clinical Cmax for an agent had not been determined, the highest concentration tested was 10 microM.
# NCI60 Cell Culture. NCI60 cell lines were obtained from the NCI Developmental Therapeutics Program Tumor Repository. For each lot of cells, the Repository performed Applied Biosystems AmpFLSTR Identifiler testing with PCR amplification to confirm consistency with the published Identifier STR profile for each cell line. Cells were kept in continuous culture for no more than 20 passages. The optimal seeding densities for each of the cell lines at each time point assessed were determined prior to performing the concentration response studies. Briefly, the NCI60 human tumor lines were grown as monolayers in RPMI 1640 medium supplemented with 10% FBS and 2 mmol/L L-glutamine.
# An additional 9 lines were from the NCI60 cell line panel including MDA-MB-231 breast carcinoma, MDA-MB-468 breast carcinoma, MCF7 breast carcinoma, Hs578T breast carcinoma, MALME-3M melanoma, SK-MEL-2 melanoma, SK-OV-3 ovarian carcinoma, DU-145 prostate carcinoma, PC-3 prostate carcinoma, all cell lines along with major genetic alterations are listed on Table 2. Pooled donor human umbilical vein endothelial cells (HUVEC, Lonza, cat. CC-2519) and human mesenchymal stem cells (hMSC, Lonza, cat. PT-2501) were purchased from Lonza (Walkersville, MD).
# PDMR cell lines were grown in complete medium (DC medium): Dulbecco's modified Eagle's medium (DMEM)/F12 supplemented with 5% fetal bovine serum (FBS), 2 mM L-glutamine, 100 U/mL penicillin and 100 µg/ml streptomycin, 0.4 µg/ml hydrocortisone, 10 ng/ml epidermal growth factor (EGF) recombinant human protein, 24 µg/mL adenine, and 0.1 mg/mL primocin. During culture from frozen stock vials, PDMR cells were cultured in the same medium containing 10 µM Y-27632 (see Table 3). The PDCs were cultured in complete DMEM/F12 media without 10 microM Y-27632 dihydrochloride for at least two passages prior to the screen. The pooled donor HUVEC and hMSC were cultured in endothelial cell growth medium 2 (PromoCell, Heidelberg, Germany, cat. C-22011) and mesenchymal stem cell growth medium 2 (PromoCell, cat. C-28009), respectively. For all experiments, HUVEC and hMSC were used at passages </=5.
# […]
smiles,measurement,setting,value
CC(=O)c1c(C)c2cnc(Nc3ccc(N4CCNCC4)cn3)nc2n(C2CCCC2)c1=O + CC(C)NCC(C(=O)N1CCN(c2ncnc3c2C(C)CC3O)CC1)c1ccc(Cl)cc1,IC50,second compound 0.1 µM,35.1 nM
same,IC50,second compound 0.316 µM,17.3 nM
same,IC50,second compound 1 µM,7.21 nM
same,IC50,second compound 3.16 µM,1.28 nM
same,IC50,second compound 10 µM,< 0.949 nM
same,"viability, T/C","second compound 0.1 µM, first compound 0.000949 µM",93.3%
same,"viability, T/C","second compound 0.1 µM, first compound 0.003 µM",89.6%
same,"viability, T/C","second compound 0.1 µM, first compound 0.00949 µM",67.7%
same,"viability, T/C","second compound 0.1 µM, first compound 0.03 µM",53%
same,"viability, T/C","second compound 0.1 µM, first compound 0.0949 µM",40.3%
same,"viability, T/C","second compound 0.1 µM, first compound 0.3 µM",35%
same,"viability, T/C","second compound 0.316 µM, first compound 0.000949 µM",82.4%
same,"viability, T/C","second compound 0.316 µM, first compound 0.003 µM",73.8%
same,"viability, T/C","second compound 0.316 µM, first compound 0.00949 µM",58.9%
same,"viability, T/C","second compound 0.316 µM, first compound 0.03 µM",42%
same,"viability, T/C","second compound 0.316 µM, first compound 0.0949 µM",34.4%
same,"viability, T/C","second compound 0.316 µM, first compound 0.3 µM",32%
same,"viability, T/C","second compound 1 µM, first compound 0.000949 µM",69%
same,"viability, T/C","second compound 1 µM, first compound 0.003 µM",60.9%
same,"viability, T/C","second compound 1 µM, first compound 0.00949 µM",45.9%
same,"viability, T/C","second compound 1 µM, first compound 0.03 µM",36%
same,"viability, T/C","second compound 1 µM, first compound 0.0949 µM",26.9%
same,"viability, T/C","second compound 1 µM, first compound 0.3 µM",26.3%
same,"viability, T/C","second compound 3.16 µM, first compound 0.000949 µM",50.4%
same,"viability, T/C","second compound 3.16 µM, first compound 0.003 µM",47.5%
same,"viability, T/C","second compound 3.16 µM, first compound 0.00949 µM",39.5%
same,"viability, T/C","second compound 3.16 µM, first compound 0.03 µM",29.1%
same,"viability, T/C","second compound 3.16 µM, first compound 0.0949 µM",25.5%
same,"viability, T/C","second compound 3.16 µM, first compound 0.3 µM",22.2%
same,"viability, T/C","second compound 10 µM, first compound 0.000949 µM",38.5%
same,"viability, T/C","second compound 10 µM, first compound 0.003 µM",33.9%
same,"viability, T/C","second compound 10 µM, first compound 0.00949 µM",27.2%
same,"viability, T/C","second compound 10 µM, first compound 0.03 µM",24.7%
same,"viability, T/C","second compound 10 µM, first compound 0.0949 µM",22.4%
same,"viability, T/C","second compound 10 µM, first compound 0.3 µM",20.3%
C=CC(=O)N1CCN(c2nc(=O)n(-c3c(C)ccnc3C(C)C)c3nc(-c4c(O)cccc4F)c(F)cc23)C(C)C1 (stereo not given) + CCN1CCN(Cc2ccc(Nc3ncc(F)c(-c4cc(F)c5nc(C)n(C(C)C)c5c4)n3)nc2)CC1,IC50,second compound 0.01 µM,> 10000 nM
same,IC50,second compound 0.0316 µM,> 10000 nM
same,IC50,second compound 0.1 µM,> 10000 nM
same,IC50,second compound 0.316 µM,> 10000 nM
same,IC50,second compound 1 µM,> 10000 nM
same,"viability, T/C","second compound 0.01 µM, first compound 0.0316 µM",91.9%
same,"viability, T/C","second compound 0.01 µM, first compound 0.1 µM",93.1%
same,"viability, T/C","second compound 0.01 µM, first compound 0.316 µM",107%
same,"viability, T/C","second compound 0.01 µM, first compound 1 µM",120%
same,"viability, T/C","second compound 0.01 µM, first compound 3.16 µM",111%
same,"viability, T/C","second compound 0.01 µM, first compound 10 µM",76.3%
same,"viability, T/C","second compound 0.0316 µM, first compound 0.0316 µM",78.5%
same,"viability, T/C","second compound 0.0316 µM, first compound 0.1 µM",88.4%
same,"viability, T/C","second compound 0.0316 µM, first compound 0.316 µM",89.9%
same,"viability, T/C","second compound 0.0316 µM, first compound 1 µM",101%
same,"viability, T/C","second compound 0.0316 µM, first compound 3.16 µM",92.3%
same,"viability, T/C","second compound 0.0316 µM, first compound 10 µM",66.4%
same,"viability, T/C","second compound 0.1 µM, first compound 0.0316 µM",61.3%
same,"viability, T/C","second compound 0.1 µM, first compound 0.1 µM",66.2%
same,"viability, T/C","second compound 0.1 µM, first compound 0.316 µM",73.8%
same,"viability, T/C","second compound 0.1 µM, first compound 1 µM",84.4%
same,"viability, T/C","second compound 0.1 µM, first compound 3.16 µM",74%
same,"viability, T/C","second compound 0.1 µM, first compound 10 µM",59.1%
same,"viability, T/C","second compound 0.316 µM, first compound 0.0316 µM",48.3%
same,"viability, T/C","second compound 0.316 µM, first compound 0.1 µM",51.3%
same,"viability, T/C","second compound 0.316 µM, first compound 0.316 µM",58.6%
same,"viability, T/C","second compound 0.316 µM, first compound 1 µM",65.9%
same,"viability, T/C","second compound 0.316 µM, first compound 3.16 µM",60.7%
same,"viability, T/C","second compound 0.316 µM, first compound 10 µM",59%
same,"viability, T/C","second compound 1 µM, first compound 0.0316 µM",50.8%
same,"viability, T/C","second compound 1 µM, first compound 0.1 µM",56.2%
same,"viability, T/C","second compound 1 µM, first compound 0.316 µM",61.1%
same,"viability, T/C","second compound 1 µM, first compound 1 µM",67.1%
same,"viability, T/C","second compound 1 µM, first compound 3.16 µM",71.7%
same,"viability, T/C","second compound 1 µM, first compound 10 µM",61.8%

# Source: PubChem BioAssay AID2060328 (Molecular Pharmacology Branch, DTP, NCI, 2025)
